# Source: PMC4519317, “MsmK, an ATPase, Contributes to Utilization of Multiple Carbohydrates and Host Colonization of Streptococcus suis” (PLoS ONE, 2015)
# Target: MsmK (Streptococcus suis, UniProt A0A0H3N1P0)
# Settings: 1 mM ATP, 10 mM MgCl2, 200 mM KCl, 50 mM PIPES/NaOH pH 6.8, 1 mM β-mercaptoethanol, 30°C, 1 h; labelled compound
# Chain of MsmK (A0A0H3N1P0 entry or part of it): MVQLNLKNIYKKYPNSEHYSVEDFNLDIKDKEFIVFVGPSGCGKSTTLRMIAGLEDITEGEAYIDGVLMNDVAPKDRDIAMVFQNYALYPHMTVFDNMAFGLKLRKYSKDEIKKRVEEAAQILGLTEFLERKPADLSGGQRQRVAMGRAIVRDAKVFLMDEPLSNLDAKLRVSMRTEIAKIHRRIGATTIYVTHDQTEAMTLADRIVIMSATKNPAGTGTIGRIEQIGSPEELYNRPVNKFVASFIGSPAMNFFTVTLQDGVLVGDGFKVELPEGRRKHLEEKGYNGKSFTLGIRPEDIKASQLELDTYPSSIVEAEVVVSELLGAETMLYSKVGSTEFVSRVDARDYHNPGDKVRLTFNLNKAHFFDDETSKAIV
smiles,measurement,value
Nc1ncnc2c1ncn2[C@@H]1O[C@H](COP(=O)(O)OP(=O)(O)OP(=O)(O)O)[C@@H](O)[C@H]1O [ATP],radiometric TLC of ADP formed from [α-32P]-ATP,ATPase assays showed that the recombinant protein could hydrolyze ATP to ADP
